These results are taken from ChEMBL document CHEMBL4811307, “Design, synthesis and biological evaluation of dual Bcl-2/Mcl-1 inhibitors bearing 2-(1H-indol-4-yl)benzoic acid scaffold” (Bioorg Med Chem Lett, 2021).

The target of one assay is Bcl-2-like protein 1 (Homo sapiens, UniProt Q07817). In words: Binding affinity to Bc1-xL (unknown origin) by fluorescence polarization competition assay. For orientation: Fluorescence polarisation rises when a labelled molecule tumbles more slowly, as on binding a larger partner.
Chain of Bcl-2-like protein 1 (Q07817 whole entry): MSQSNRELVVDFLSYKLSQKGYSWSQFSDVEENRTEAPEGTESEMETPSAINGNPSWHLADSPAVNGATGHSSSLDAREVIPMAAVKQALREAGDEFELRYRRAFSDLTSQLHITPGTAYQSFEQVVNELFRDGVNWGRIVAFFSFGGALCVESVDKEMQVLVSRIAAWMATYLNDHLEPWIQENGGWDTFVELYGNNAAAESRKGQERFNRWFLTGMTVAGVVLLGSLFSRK
Assay [1] has as its target Induced myeloid leukemia cell differentiation protein Mcl-1 (Homo sapiens, UniProt Q07820). The assay can be described thus: Binding affinity to Mc1-1 (unknown origin) by fluorescence polarization competition assay.

Chain of Induced myeloid leukemia cell differentiation protein Mcl-1 (Q07820 whole entry): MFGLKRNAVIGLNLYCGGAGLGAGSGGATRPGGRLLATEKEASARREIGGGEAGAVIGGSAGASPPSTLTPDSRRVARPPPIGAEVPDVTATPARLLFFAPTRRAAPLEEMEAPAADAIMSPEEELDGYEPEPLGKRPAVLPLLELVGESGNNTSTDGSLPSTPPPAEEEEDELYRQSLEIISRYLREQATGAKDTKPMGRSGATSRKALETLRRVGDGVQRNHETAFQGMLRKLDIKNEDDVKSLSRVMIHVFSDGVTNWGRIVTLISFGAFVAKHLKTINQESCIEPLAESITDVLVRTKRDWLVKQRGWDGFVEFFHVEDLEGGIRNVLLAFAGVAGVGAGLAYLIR

As to `Cc1ccccc1-c1cn(Cc2cccc3ccccc23)c2cccc(-c3ccccc3C(=O)O)c12`, the Ki was > 200 µM on Bcl-2-like protein 1 (read-out: Ki) and 70 nM in assay [1].

With `COc1ccccc1-c1cn(CCOc2cccc3ccccc23)c2cccc(-c3ccccc3C(=O)O)c12`, the inhibitory constant (Ki) is > 200 µM on Bcl-2-like protein 1 (read-out: Ki) and 170 nM in assay [1].

Consider `Cc1cccc(-c2cn(CCCOc3cccc4ccccc34)c3cccc(-c4ccccc4C(=O)O)c23)c1`, for which the Ki was > 200 µM at Bcl-2-like protein 1 (read-out: Ki) and 1330 nM in assay [1].

`COc1cccc(-c2cn(Cc3cccc4ccccc34)c3cccc(-c4ccccc4C(=O)O)c23)c1`: the values for the inhibitory constant (Ki) (at Bcl-2-like protein 1 (read-out: Ki); in assay [1]) were > 200 µM and 290 nM, respectively.

In the case of `O=C(O)c1ccccc1-c1cccc2c1c(-c1cccc(C(F)(F)F)c1)cn2Cc1cccc2ccccc12`, the Ki at Bcl-2-like protein 1 (read-out: Ki) is > 200 µM; in assay [1] it was 190 nM.

With `CCc1ccccc1-c1cn(CCOc2cccc3ccccc23)c2cccc(-c3ccccc3C(=O)O)c12`, the values for the Ki (at Bcl-2-like protein 1 (read-out: Ki); in assay [1]) were > 200 µM and 270 nM, respectively.

In the case of `O=C(O)c1ccccc1-c1cccc2c1c(-c1cccc(C(F)(F)F)c1)cn2CCCOc1cccc2ccccc12`, the inhibition constant Ki on Bcl-2-like protein 1 (read-out: Ki) turned out to be 3.1 µM; in assay [1], 280 nM.

In the case of `Cc1cccc(-c2cn(CCOc3cccc4ccccc34)c3cccc(-c4ccccc4C(=O)O)c23)c1C`, the inhibition constant (Ki) on Bcl-2-like protein 1 (read-out: Ki) was > 200 µM; in assay [1], 710 nM.

With `O=C(O)c1ccccc1-c1cccc2c1c(-c1cccc(Cl)c1)cn2Cc1cccc2ccccc12`, the Ki is > 200 µM on Bcl-2-like protein 1 (read-out: Ki) and 450 nM in assay [1].

Turning to `COc1ccccc1-c1cn(Cc2cccc3ccccc23)c2cccc(-c3ccccc3C(=O)O)c12`, the inhibition constant (Ki) at Bcl-2-like protein 1 (read-out: Ki) is > 200 µM; in assay [1] it was 270 nM.

On to `O=C(O)c1ccccc1-c1cccc2c1c(-c1ccccc1)cn2Cc1cccc2ccccc12`, for which the inhibitory constant (Ki) was > 200 µM at Bcl-2-like protein 1 (read-out: Ki) and 120 nM in assay [1].

In the case of `CC(C)c1ccccc1-c1cn(CCOc2cccc3ccccc23)c2cccc(-c3ccccc3C(=O)O)c12`, the Ki at Bcl-2-like protein 1 (read-out: Ki) was > 200 µM; in assay [1], 170 nM.

As to `CC1(C)CCC(CN2CCN(c3ccc(C(=O)NS(=O)(=O)c4ccc(NCC5CCOCC5)c([N+](=O)[O-])c4)c(Oc4cnc5[nH]ccc5c4)c3)CC2)=C(c2ccc(Cl)cc2)C1` [VENETOCLAX], in assay [1], the inhibition constant Ki was > 200000 nM.

`Cc1ccc(-c2cn(Cc3cccc4ccccc34)c3cccc(-c4ccccc4C(=O)O)c23)cc1`: the values for the inhibitory constant (Ki) (on Bcl-2-like protein 1 (read-out: Ki); in assay [1]) were > 200 µM and 230 nM, respectively.

On to `Cc1cccc(-c2cn(Cc3cccc4ccccc34)c3cccc(-c4ccccc4C(=O)O)c23)c1`, for which the values for the Ki (at Bcl-2-like protein 1 (read-out: Ki); in assay [1]) were > 200 µM and 960 nM, respectively.

In the case of `Cc1ccc(-c2cn(CCOc3cccc4ccccc34)c3cccc(-c4ccccc4C(=O)O)c23)cc1`, the figures for the inhibitory constant (Ki) (at Bcl-2-like protein 1 (read-out: Ki); in assay [1]) were > 200 µM and 250 nM, respectively.

`O=C(O)c1ccccc1-c1cccc2c1c(-c1cccc(Cl)c1)cn2CCOc1cccc2ccccc12`: the inhibitory constant (Ki) at Bcl-2-like protein 1 (read-out: Ki) came to 2.3 µM; in assay [1], 360 nM.

On to `O=C(O)c1ccccc1-c1cccc2c1ccn2CCCOc1cccc2ccccc12`, for which the Ki result on Bcl-2-like protein 1 was “Not Active”; in assay [1] it was 1190 nM.

In the case of `Cc1cccc(-c2cn(CCOc3cccc4ccccc34)c3cccc(-c4ccccc4C(=O)O)c23)c1`, the values for the inhibitory constant (Ki) (at Bcl-2-like protein 1 (read-out: Ki); in assay [1]) were > 200 µM and 920 nM, respectively.

In the case of `Cc1ccccc1-c1cn(CCOc2cccc3ccccc23)c2cccc(-c3ccccc3C(=O)O)c12`, the Ki on Bcl-2-like protein 1 (read-out: Ki) is > 200 µM; in assay [1], 170 nM.

Regarding `O=C(O)c1ccc(Cl)cc1-c1cccc2c1ccn2CCCOc1cccc2ccccc12`, the inhibition constant (Ki) stood at 2.3 µM at Bcl-2-like protein 1 (read-out: Ki) and 220 nM in assay [1].

As to `Cc1cc2c(C(C)C)c(O)c(O)c(C=O)c2c(O)c1-c1c(C)cc2c(C(C)C)c(O)c(O)c(C=O)c2c1O` [GOSSYPOL], the inhibition constant (Ki) on Bcl-2-like protein 1 (read-out: Ki) amounted to 0.61 µM.

As for `O=C(O)c1ccccc1-c1cccc2c1c(-c1cccc(C(F)(F)F)c1)cn2CCOc1cccc2ccccc12`, the Ki at Bcl-2-like protein 1 (read-out: Ki) was found to be 6.1 µM; in assay [1], 30 nM.

As a reminder, the Ki is the dissociation constant of the complex between target and ligand, obtained from inhibition or displacement.
